Laboratory results from patent US6716411B2, “Method for finding nucleotide synthesis inhibitors having fewer side effects” (Aventis Pharma Deustschland GmbH, priority 1999, dated 2004).
Several values for one entry are separate records, joined by “and”; a condition that tells them apart may be missing. Equal values may be shown once. Read-outs that look alike come from different tables or passages of the source. Marks after values point to notes of the source that are not given here.

Key:
[1] = Blood plasma level of compound 1 in the rat with and without colestyramine (HPLC-MS/MS); type: in vivo; conditions: for half-life: male, Lewis, rat, plasma
Procedure: A selective HPLC-MS/MS method was used for the detection of compound 1. The quantitative determination of compound 1 from the blood plasma was carried out as follows:
A solution of an internal standard, then 0.1 M NaOH solution and 1 ml of diethyl ether were added. The mixture was vigorously shaken and the organic phase was discarded. 0.5 N HCl solution was added to the aqueous phase, and the analyte and the internal standard were extracted with 1 ml of diethyl ether. The organic phase was evaporated and taken up in a 1:1 mixture of acetonitrile and water. 10 μl of this solution was injected into an HPLC unit.
The HPLC unit contained a Lichrospher C-18HD column. Using a flow rate of 1 ml/min, the analyte and the internal standard were eluted using the eluent combination acetonitrile+(ammonium acetate solution [10 mmolar]), 67+33, and then selectively detected by mass spectroscopy (LC-MS/MS analysis). During the analysis of the blood plasma samples, calibration samples were taken.
In order to test foreign substances in identical metabolic situations, compound 1 was given only to animals with adjuvant arthritis. The arthritis was induced according to Example 1. The animal weight was on average 210 g. Each group consisted of 6 male Lewis rats. Blood samples were obtained from the tail.
The influence on the blood plasma level of compound 1 was investigated by means of colestyramine. […] During combination therapy with colestyramine, 1000 mg/kg of colestyramine was administered 4 hours after administration of the compound 1. Control animals received 1% CMC at the appropriate times without any active compound. The influence on the pharmacokinetics of compound 1 by colestyramine was investigated both after single administration and after chronic administration of compound 1 with or without colestyramine. Blood samples were obtained 2, 4, 6, 8, 24 and 48 hours after the last administration of compound 1.
The term “area under the curve” (AUC) is understood as meaning the area under the concentration level of a pharmaceutical substance plotted as a function of time. The AUC reflects the extent to which an organism is exposed to a substance. The term “chronic administration” is understood as meaning an administration of the compound 1 over a period of time which at least leads to constant blood levels of the compound 1. These constant blood levels, referred to as the steady state, are achieved after approximately 4 to 5 half-lives of regular taking.

pemphigus vulgaris = experiment: Observation of leflunomide treatment in humans; type: in vivo; conditions: rheumatoid arthritis patients treated with leflunomide
Procedure: This diarrhea adversely affected the quality of life of the patient. Because of the problems caused by this side effect, an attempt was made, after more than two years' therapy with a constant dose of 20 mg of leflunomide per day, to end the therapy.
This observation was surprising, as the active metabolite of leflunomide, compound 1, has a half-life of approximately 14 days in humans. Furthermore, in this patient the blood levels of the active metabolite of leflunomide were repeatedly determined in the relatively high range between 70 mg/l and 85 mg/l.

[2] = Tolerability of constant (mini-infusion pump) versus pulse-like (oral) blood levels (Example 5); type: in vivo, rat; conditions: male, Lewis, rat, plasma, subcutaneous, read-out: Compound 1 blood plasma level (day 27)
Procedure: (§1) In order to attain constant blood levels, a mini-infusion pump was subcutaneously implanted into experimental animals. The mini-infusion pumps contained 2 ml of a 15% strength ethanolic solution of compound 1, which was continuously released over 28 days. Doses of 2.5, 5, 10 and 25 mg/kg/day were employed. For comparison, animals which received the same daily doses of the compound 1, but administered orally, were implanted with mini-infusion pumps; these, however, were filled with only the vehicle (15% ethanol in water). A 1% strength CMC was additionally administered orally to animals which received the compound 1 via mini-infusion pumps. The survival of the animals was taken as a course parameter. Additionally, blood was taken on day 5 and day 27 in order to determine the blood levels of compound 1. Blood was taken from animals 4 hours after oral administration of compound 1. The group was comprised of 6 male Lewis rats having a body weight of approximately 210 g. Corresponding to the preceding experiments, adjuvant arthritis was induced in the animals on day 5.
(§2) For the attainment of constant blood levels of compound 1, the animals were implanted subcutaneously with a mini-infusion pump which supplied compound 1 to the animals continuously for 28 days. By means of this pump, constant blood levels of compound 1 were attained. Thus long half-lives of compound 1, such as are observed in humans, were simulated.
(§3) For the comparison group, animals were treated with the identical daily dose of compound 1, but received the substance orally rather than by mini-infusion pump.
(§4) In this experiment, the tolerability of the compound 1 with a short half-life (compound 1 orally administered) was compared with the tolerability of the compound 1 with a long half-life (compound 1 by pump with a constant infinite half-life). The doses employed were 2.5 mg/kg/day, 5 mg/kg/day, 10 mg/kg/day and 25 mg/kg/day. The number of animals surviving the treatment was used as a measure of the tolerability. The tolerability was moreover compared with respect to the observed blood levels.

Lewis rats = experiment: as above; type: in vivo, rat
Procedure: as §1, §2, §3, §4

[3] = chronic administration, 2.5 mg/kg of compound 1
[4] = chronic administration, 2.5 mg/kg of compound 1 and 1000 mg/kg of colestyramine 4 hours later
[5] = single administration, 2.5 mg/kg of compound 1
[6] = single administration, 2.5 mg/kg of compound 1 and 1000 mg/kg of colestyramine 4 hours later

With C/C(O)=C(\C#N)C(=O)Nc1ccc(C(F)(F)F)cc1 [compound 1, N-(4-trifluoromethylphenyl)-2-cyano-3-hydroxycrotonamide] the “Area under the curve 0-48 hours” value [1, 3] was 63.58 μg/ml × hr, the “Maximum blood plasma level” value [1, 3] was 5.73 µg/mL and the “Area under the curve 0-48 hours” value [1, 4] was 37.81 μg/ml × hr. For the same compound, the “Maximum blood plasma level” value [1, 4] was 4.66 µg/mL, the half-life ([1]; oral, 2.5 mg/kg, chronic administration, 2.5 mg/kg of compound 1) was 3.45 h and the half-life ([1]; oral, 2.5 mg/kg, single administration, 2.5 mg/kg of compound 1, rats with adjuvant arthritis) was 3.85 h. It also gave a half-life ([1]; oral, chronic administration, 2.5 mg/kg of compound 1 and 1000 mg/kg of colestyramine 4 hours later) of 3.47 h, a half-life ([1]; oral, single administration, 2.5 mg/kg of compound 1 and 1000 mg/kg of colestyramine 4 hours later) of 3.32 h and a half-life ([1]; po, 2.5 mg/kg/day, in rats, approximately, orally administered) of 4 to 8 h. The “AUC reduced by administration of colestyramine” value ([1]; multiple administration) was 40%, the “AUC reduced by administration of colestyramine” value ([1]; single administration) was 30% and the “Area under the curve 0-48 hours” value [1, 5] was 141.69 μg/ml × hr. The “Maximum blood plasma level” value [1, 5] was 10.15 µg/mL, the “Area under the curve 0-48 hours” value [1, 6] was 99.90 μg/ml × hr and the “Maximum blood plasma level” value [1, 6] was 9.62 µg/mL. For the same compound, the “blood levels of the compound 1” value (pemphigus vulgaris) was “over 32 mg/l”, the concentration at 27 day ([2]; 2.5 mg/kg/day mini-infusion) was 2340 ng/mL and the concentration at 27 day ([2]; 5 mg/kg/day mini-infusion) was 4180 ng/mL. The concentration at 27 day ([2]; 10 mg/kg/day mini-infusion) was 6720 ng/mL, the Body weight increase (Lewis rats; 2.5 mg/kg/day mini-infusion) was “+22%” and the “Compound 1 blood plasma level (day 5)” value (Lewis rats; 2.5 mg/kg/day mini-infusion) was 2.05 μg/ml ±. The “Compound 1 blood plasma level (day 27)” value (Lewis rats; 2.5 mg/kg/day mini-infusion) was 2.34 μg/ml ±, the Surviving animals (Lewis rats; 2.5 mg/kg/day mini-infusion) was 100% and the Body weight increase (Lewis rats; 2.5 mg/kg/day p.o.) was “+29%”. For the same compound, the Surviving animals (Lewis rats; 2.5 mg/kg/day p.o.) was 100%, the Body weight increase (Lewis rats; 5 mg/kg/day mini-infusion) was “+26%” and the “Compound 1 blood plasma level (day 5)” value (Lewis rats; 5 mg/kg/day mini-infusion) was 3.57 μg/ml ±. The “Compound 1 blood plasma level (day 27)” value (Lewis rats; 5 mg/kg/day mini-infusion) was 4.18 μg/ml ±, the Surviving animals (Lewis rats; 5 mg/kg/day mini-infusion) was 100% and the Body weight increase (Lewis rats; 5 mg/kg/day p.o.) was “+25%”. For the same compound, the Surviving animals (Lewis rats; 5 mg/kg/day p.o.) was 100%, the “Compound 1 blood plasma level (day 5)” value (Lewis rats; 5 mg/kg/day p.o., 4 hours after oral administration) was 14.31 µg/µg/mL and the Body weight increase (Lewis rats; 10 mg/kg/day mini-infusion) was “+29%”. For the same compound, the “Compound 1 blood plasma level (day 5)” value (Lewis rats; 10 mg/kg/day mini-infusion) was 4.55 μg/ml ±, the “Compound 1 blood plasma level (day 27)” value (Lewis rats; 10 mg/kg/day mini-infusion) was 6.72 μg/ml ± and the Surviving animals (Lewis rats; 10 mg/kg/day mini-infusion) was 100%. For the same compound, the Body weight increase (Lewis rats; 10 mg/kg/day p.o.) was “+27%”, the Surviving animals (Lewis rats; 10 mg/kg/day p.o.) was 100% and the “Compound 1 blood plasma level (day 27)” value (Lewis rats; 10 mg/kg/day p.o., 4 hours after oral administration) was 34.35 μg/ml and 34.35 μg/ μg/ml. The Surviving animals (Lewis rats; 25 mg/kg/day mini-infusion) was 17%, the “blood plasma levels, extrapolated from the values at lower doses” value (Lewis rats; 25 mg/kg/day mini-infusion pump) was no more than 15000 ng/mL and the Body weight increase (Lewis rats; 25 mg/kg/day mini-infusion, determined in one surviving animal only) was “+13%*”. For the same compound, the survival (Lewis rats; 25 mg/kg/day orally administered) was “all animals”, the Body weight increase (Lewis rats; 25 mg/kg/day p.o.) was −2% and the Surviving animals (Lewis rats; 25 mg/kg/day p.o.) was 100%.
